Laboratory results as given in US20160326098A1, “Pharmaceutically Active Compound for Use as Anti-inflammatory Agent” (Pax Forschung GmbH, priority 2013, published 2016).

Tests used:
Assay type in all cases: in vivo
myeloperoxidase (MPO) [1] = experiment: Tissue myeloperoxidase activity, mice with TNBS-induced colitis; details: gastric and colon tissue, 1.11 mmol/kg, one day after treatment, vs untreated colitis and ASS groups, FIGS. 13a/13b
Protocol: (§1) Colonic inflammation was induced by intracolonic administration of TNBS (2,4,6-trinitrobenzenesulfonic acid) (40 mg/kg in 0.25 ml of 25% aqueous ethanol) through an 8-cm-long soft plastic catheter under transient diethylether anesthesia. In the sham-operated groups, only the vehicle for TNBS was administered. The animals were deprived of food, but not water, for 12 h before the enemas.
(§2) Colon biopsies kept on ice were homogenized in phosphate buffer (pH 7.4) containing 50 mM Tris-HCl (Reanal, Budapest, Hungary), 0.1 mM EDTA, 0.5 mM dithiothreitol, 1 mM phenylmethylsulfonyl fluoride, 10 μg/ml soybean trypsin inhibitor, and 10 μg/ml leupeptin (Sigma Aldrich GmbH, Munich, Germany). […] The activity of myeloperoxidase (MPO) was measured on the pellet of the homogenate.
(§3) The activity of MPO as a marker of tissue leukocyte infiltration was measured on the pellet of the homogenate. […] The reaction led to the hydrogen peroxide-dependent oxidation of tetramethylbenzidine, which could be detected spectrophotometrically at 450 nm (UV-1601 spetrophotometer; Shimadzu, Kyoto, Japan). Myeloperoxidase activities were measured at 37° C.; the reaction was stopped after 5 minutes by the addition of 0.2 ml of H2SO4 (2 M), and the resulting data were referred to the protein content. […]

nitrite/nitrate (NOx) = experiment: Tissue nitrite/nitrate level, mice with TNBS-induced colitis; details: gastric and colon tissue, 1.11 mmol/kg, FIGS. 15a/15b
Protocol: as §1
The levels of plasma nitrite/nitrate (NOx), stable end products of NO were measured by the Griess reaction. This assay depends on the reduction of nitrate to nitrite, which is then converted into a colored azo dye compound that is detected spectrophotometrically at 540 nm.
The above-described clinical studies were repeated with animals having colitis which was induced as described above. […] Two days after the enema the effects of the treatment were determined by measurement of body weight, blood gas analysis and biopsy. […] Surgery was performed to allow registration of the hemodynamic parameters at 1 h intervals for 6 h (cardiac output [CO] data were measured only at the end of the experiments). […] In addition, fluorescence confocal endomicroscopy was performed to examine the microvasculature and morphologic changes of the mucosa of the distal colon, and full-thickness tissue samples and venous blood samples were taken to determine the biochemical changes in the colon and plasma.

myeloperoxidase (MPO) [2] = experiment: Tissue myeloperoxidase activity, rats with TNBS-induced colitis; details: gastric and colon tissue, one day after 1.11 mmol/kg, vs untreated colitis and ASS groups, FIGS. 32a/32b
Protocol: as §1, §2, §3

[3] = system: collagen-induced arthritis (CIA); experiment: Collagen-induced arthritis (CIA), clinical evaluation; details: mice, 1.11 mmol/kg force-fed from first immunization until end
Protocol: Further clinical studies were performed with animals having collagen-induced arthritis (CIA). In these studies, mice were used as test animals. At the age of eight weeks, the animals were immunized intradermally at the base of the tail with 50 μl of bovine collagen II emulsified in 50 μl of complete Freund's adjuvant. A second booster immunization was performed 3 weeks later, when 50 μl of incomplete Freund's adjuvant was administered with or without the same volume of collagen H. The animals were randomly allocated into experimental groups wherein group 1 served as control, having no arthritis, group 2 served as second control having arthritis, but receiving no further treatment, and group 3 having arthritis and being treated with compound according to the invention. The animals of group 3 were force-fed 1.11 mmol/kg body weight of the compound according to the invention from the first immunization until the end of the experiments. The severity of CIA was evaluated using a clinical scoring system; inflammatory hyperalgesia was detected with thermal stimulation. […]

With `CC(=O)Oc1ccccc1C(=O)NC(CO)(CO)CO` [compound according to the invention] the myeloperoxidase enzyme activity (myeloperoxidase (MPO) [1]) was “decrease of activity”, the nitrite/nitrate level (nitrite/nitrate (NOx)) was “nitrite/nitrate levels comparable to those of healthy animals” and the myeloperoxidase enzyme activity (myeloperoxidase (MPO) [2]) was “decrease of activity”. For the same compound, the “severity of CIA (clinical scoring system of Nandakumar)” value ([3]; vs untreated arthritis group 2, FIG. 36) was “less serious arthritis” and the “incidence of CIA” value ([3]; same in untreated arthritis group 2, FIG. 36) was 90%.
